Reference: US20240377321A1, “HOLOGRAPHIC IMAGE PROCESSING AND DATA EXTRACTION” (Accelerate Diagnostics, Inc., priority 2023, published 2024)

Tested on: Klebsiella oxytoca (CDCJI 380)
Assay: holographic monitoring of cellular growth of Klebsiella oxytoca incubated with antibiotic
Assay type: cell-based
Details: 0.5 mg/mL Meropenem, about eight hours incubation
Method: FIGS. 18A-18E depict a sequence of photographs A-E of a sample volume 18, with FIG. 18A depicting the earliest photograph, and FIG. 18E depicting the latest photograph. The photographs A-E show cellular growth of Klebsiella oxytoca (CDCJI 380), which was incubated with 0.5 mg/mL of the antibiotic Meropenem over a period of about eight hours. The photographs A-E provide an example of a complex response of microorganisms to an antibiotic. A holograph 32 of the sample volume 18 was captured every ten minutes during the incubation period. FIG. 19 depicts a graph including a plot 170 of a cellular growth indicator (e.g., the holographic intensity variance) extracted from the full holograph 32, and a plot 172 of the cellular growth indicator extracted from the set of pixels comprising tile six of the holograph 32. The times corresponding to the photographs A-E of FIGS. 18A-18E are indicted by correspondingly labeled arrows in the graph of FIG. 19. […] The slight rise in the cellular growth indicator after seven hours is the earliest indication of a potential resurgence of cell growth, e.g., due to the microorganism becoming resistant.
The divergence of tile plot 172 from the full-holograph plot 170 begins at about the three and half hour mark. This is due to the response of the microorganism to the antibiotic in the localized region of the sample volume corresponding to tile six. This region of the sample volume contains a subpopulation of bacterial cells that appear to have become resistant to the antibiotic, and have begun to grow in colony clusters. This example of delayed resistance to an antibiotic is clinically relevant, and recognizing the resistance early in a test can lead to timely administration of the correct antibiotic at the right dose to treat the patient. From an algorithmic perspective, systematically dividing holographs into portions (e.g., tiles) and calculating the cellular growth indicator for each portion can be used to identify events or hot spots in the growth or death of microorganisms.

C[C@@H](O)[C@H]1C(=O)N2C(C(=O)O)=C(S[C@@H]3CN[C@H](C(=O)N(C)C)C3)[C@H](C)[C@H]12 [Meropenem]
cellular growth indicator (e.g., holographic intensity variance) over time, full holograph (full-holograph plot 170): decreases after three and a half hours of incubation, followed by a slight increase after seven hours of incubation | response of microorganism to antibiotic based on full-holograph plot (holograph every ten minutes, full-holograph plot 170): appears to be sensitive to the dose of antibiotic | cellular growth indicator over time, tile six of the holograph (tile plot 172 (tile six)): resurgent growth due to emerging antibiotic resistance at about four and a half hours
